Test results as given in patent US20160282364A1, “ASSAY FOR INSULIN-DEGRADING ENZYME (IDE) INHIBITORS” (PRESIDENT AND FELLOWS OF HARVARD COLLEGE, priority 2013, published 2016).
Entries after “also recorded” stand apart in the source; their conditions may differ.

Legend:
[1] = Plasma stability (1 h incubation); format: in vitro ADME; details: after 1 h
[2] = Liver microsome stability (1 h incubation); format: in vitro ADME; details: after 1 h
[3] = Plasma pharmacokinetics by isotope dilution mass spectrometry; format: in vivo, mouse; details: 80 mg/kg
Method: Purified macrocycle inhibitors were dissolved in DMSO-d6 ( 200 to 250 mg/mL stock solutions). […] The inhibitor concentration was calculated using the integral of the CH2Cl2 singlet (δ 5.76 ppm, 2H)^57, which appears in an uncluttered region of these spectra^51,58. For injectable formulations (10 mL/kg i.p. injection volume), the macrocycle inhibitor solution in DMSO-d6 (200-250 mg/mL, based on free-base molecular weight) was combined with 1:20 w/w Captisol® powder (CyDex)^59. The resulting slurry was supplemented with DMSO-d6 to make up to 5% of the final formulation volume, mixed thoroughly and dissolved with sterile saline solution (0.9% NaCl). Vehicle controls were identically formulated with 5% DMSO-d6 and equal amount of Captisol®. The formulated solutions of inhibitor were clear with no visible particles, and were stored overnight at 4° C. prior to injection. Stable isotope dilution LC-MS, pharmacokinetics, and tissue distribution measurements. […] Tissue samples ( 100 mg) fromb 6K-treated mice and vehicle controls were weighed and disrupted in Dounce homogenizers with PBS buffer (0.5 mL/100 mg sample), supplemented with 5 μM heavy-6bK and protease inhibitor cocktail (1 tablet/50 mL PBS, Roche diagnostics). The lysate was incubated on ice for 30 min, sonicated 5 min and centrifuged at 13,000 g for 5 min. The bulk of supernatant proteins were precipitated by denaturation at 95° C. for 5 min, removed by centrifugation.

[4] = system: C57BL/6J mice; assay: Insulin tolerance test, glucagon challenge and amylin challenge; format: in vivo, mouse
Method: Wild-type lean C57BL/6J and diet-induced obese (DIO) C57BL/6J age-matched male mice were purchased from Jackson Laboratories, and used at ages 14-16, and 24-26 weeks respectively (>20 weeks of high-fat diet for the DIO mice). GCGR^/ mice were bred from heterozygous mice and used between 11 and 17 weeks. […] Blood glucose was measured from tail nicks using AccuCheck (Aviva) meters.
Insulin Tolerance Test (ITT), Glucagon Challenge (GC) and Amylin Challenge (AC). For hormone challenges animals were fasted individually housed as described above. For ITT the fasting period was 6 h (7 am to 1 pm), and for glucagon and amylin challenges the fasting period was 14 h (8 pm-10 am). Inhibitor or vehicle alone was injected i.p. as previously described, 30 min prior to each hormone challenge. […] Glucagon (Eli Lilly) was injected s.c. 100 μg/kg formulated in 0.5% BSA sterile saline (5 mL/kg). Amylin (Bachem) was injected s.c. 250 μg/kg formulated in sterile saline (5 mL/kg). Blood glucose was measured at timepoints −45, 0, 15, 30, 45, 60 and 75 min with reference to the time of hormone injection, by microsampling from a tail nick as described above. Values are reported as mean±S.E.M. Statistics were performed using a two-tail Student's t-test, and significance levels shown in the figures are *p<0.05 versus vehicle control group or **p<0.01 versus vehicle control group.
Blood collection and plasma hormone measurements. Blood was collected in EDTA-coated tubes (BD Microtainer®) from trunk bleeding (˜500 μL) after CO2-euthanasia for all hormone assays. The plasma was immediately separated from red blood cells by centrifugation 10 min at 1800 g, aliquoted, frozen over dry ice and stored at −80° C. […] Values are reported as mean±S.E.M. Statistics were performed using a two-tail Student's t-test, and significance levels shown in the figures are *p<0.05 versus vehicle control group or **p<0.01 versus vehicle control group.

[5] = system: mice; assay: Blood pressure and heart rate in mouse CGRP model; format: in vivo
Method: CGRP is a potent microvascular vasodilator widely expressed in the central and peripheral nervous systems of vertebrates. Administration of CGRP resulting in supraphysiological plasma levels of CGRP results in temporary vasodilation, hypotension, and an increased heart rate.
Nine mice received 250 ng CGRP intravenously (t=0). […] The other five received a control injection of vehicle only.
In addition,the lower panel of FIG. 19 demonstates that the increase in heart rate observed initially after CGRP administration is similar in both groups, but that the heart rate remains […] and the heart change rate is decreased in 6bK-administered mice as compared to controls.

[6] = molecular target: IDE (Homo sapiens, UniProt P14735); assay: Protease assay with fluorogenic peptide substrate Mca-[…](Dnp)-OH (IDE species not given); format: biochemical; set-up: The proteases IDE42-1019, recombinant human IDE42-1019 (R&D Systems); details: IDE
Chain of IDE (P14735 42-1019): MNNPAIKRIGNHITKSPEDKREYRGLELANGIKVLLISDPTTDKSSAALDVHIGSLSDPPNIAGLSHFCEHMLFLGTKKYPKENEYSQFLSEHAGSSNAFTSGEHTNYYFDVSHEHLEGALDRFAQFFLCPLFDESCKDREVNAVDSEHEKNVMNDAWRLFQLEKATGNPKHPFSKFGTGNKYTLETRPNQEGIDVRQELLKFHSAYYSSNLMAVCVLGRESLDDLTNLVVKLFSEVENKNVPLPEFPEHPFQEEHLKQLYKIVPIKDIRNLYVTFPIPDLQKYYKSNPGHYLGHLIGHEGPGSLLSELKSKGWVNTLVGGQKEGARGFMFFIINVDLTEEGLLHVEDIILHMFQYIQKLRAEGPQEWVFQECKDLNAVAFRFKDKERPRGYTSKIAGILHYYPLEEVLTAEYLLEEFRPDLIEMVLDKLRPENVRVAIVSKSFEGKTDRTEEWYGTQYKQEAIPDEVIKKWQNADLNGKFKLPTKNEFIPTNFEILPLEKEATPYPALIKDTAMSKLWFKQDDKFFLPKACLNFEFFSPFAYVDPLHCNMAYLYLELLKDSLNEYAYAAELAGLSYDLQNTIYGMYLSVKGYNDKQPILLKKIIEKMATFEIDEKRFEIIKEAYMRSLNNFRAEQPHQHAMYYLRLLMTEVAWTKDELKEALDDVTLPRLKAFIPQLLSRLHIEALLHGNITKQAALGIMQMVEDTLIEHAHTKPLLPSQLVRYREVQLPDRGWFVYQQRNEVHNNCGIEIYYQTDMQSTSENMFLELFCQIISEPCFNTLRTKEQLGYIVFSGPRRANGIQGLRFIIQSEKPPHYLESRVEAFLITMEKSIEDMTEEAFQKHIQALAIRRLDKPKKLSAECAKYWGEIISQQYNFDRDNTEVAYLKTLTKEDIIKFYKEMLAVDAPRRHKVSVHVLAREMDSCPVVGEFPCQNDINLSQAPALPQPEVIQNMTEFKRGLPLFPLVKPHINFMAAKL
Method: All data points and error bars represent mean±SEM. Significance tests were performed using two-tail Student's t-test, and significance levels shown in the figures are p<0.05 (*) or p<0.01 (**) versus the vehicle-only control group. The in vitro selection of the DNA-templated macrocycle libraryl^16,17 used 20 μg His6-tagged mouse IDE immobilized on cobalt magnetic beads (Dynabeads, Invitrogen). IDE proteolytic activity was assayed with fluorogenic peptide Mca-[…](Dnp)-OH (R&D). IDE inhibition was confirmed using an anti-insulin antibody time-resolved FRET assay (Cysbio), and using an LCMS assay for CGRP cleavage fragments CGRP1-17 and CGRP18-37 in plasma^18. […] Protease assays with fluorogenic peptide substrates. […] (R&D). All assay data points were obtained in duplicate.

What does the source list for `NCCCC[C@@H]1NC(=O)/C=C/C(=O)N[C@H](C(N)=O)CCCCNC(=O)[C@@H](Cc2ccc(C(=O)c3ccccc3)cc2)NC(=O)[C@H](CC2CCCCC2)NC1=O` [Compound 6bK]?
remaining after incubation with plasma [1]: 74%; remaining after incubation with liver microsome preparations [2]: 78%; plasma concentration relative to IC50 for mouse IDE ([3]; 30 min post-injection): ~1000 fold; time at which plasma levels were detectable post-injection ([3]; mouse, in vivo, ip): 5 min; time plasma levels maintained at a detectable level ([3]; mouse, in vivo, ip): at least 4 h; adverse observations after high-dose insulin ([4]; 80 mg/kg i.p. plus insulin 1.0 U/kg, sacrificed at 75 min): lethargy and hypothermia; plasma level of the hormone injected at the end of the procedure ([4]; insulin, amylin or glucagon challenge, lean mice, vs control): remained elevated; blood glucose response to amylin challenge ([4]; lean mice, 80 mg/kg, amylin s.c. 250 μg/kg, vs vehicle): hyperglycemia; blood glucose response to glucagon challenge ([4]; lean mice, 80 mg/kg, glucagon s.c. 100 μg/kg, vs vehicle): hyperglycemia; blood glucose response in insulin tolerance test ([4]; mice, 6bK 80 mg/kg i.p. 30 min before s.c. insulin, vs vehicle): lower hypoglycemia; insulin levels in insulin tolerance test ([4]; mice, 6bK 80 mg/kg, vs vehicle controls, p<0.01): higher; hypoglycemic response to a high dose of insulin ([4]; non-fasted male C57BL/6J mice, 80 mg/kg i.p., i.p. insulin 1.0 U/kg): Increased hypoglycemic response; return of blood pressure to baseline / duration of CGRP-induced hypotension ([5]; 1 mg 6bK i.p. 30 min before 250 ng CGRP i.v.): slower kinetics; also recorded: increases the duration; baseline blood pressure ([5]; mice, 1 mg 6bK i.p., vs vehicle): reduced; also recorded: lowered; baseline heart rate ([5]; mice, 1 mg 6bK, vs control): reduced; IC50 [6]: 50 nM
